Earlier results on 2 compounds are cited in US20080131879A1, “Detection of Subjects at Risk For Chd By a Genotype Evaluation Associated With Serum Plant Sterols Enabling Individualized (Drug) Treatment on Demand” (University Van Maastricht, priority 2004, published 2008).

The conditions of the data set: intestinal absorption from diet.

Each structure is given as a SMILES string.

Take `CC(C)[C@H](C)CC[C@@H](C)[C@H]1CC[C@H]2[C@@H]3CC=C4C[C@@H](O)CC[C@]4(C)[C@H]3CC[C@]12C` [campesterol]: the Absorption is reported as 1.89%.

Regarding `CC[C@H](CC[C@@H](C)[C@H]1CC[C@H]2[C@@H]3CC=C4C[C@@H](O)CC[C@]4(C)[C@H]3CC[C@]12C)C(C)C` [sitosterol], the Absorption is 0.51%.
